From US8242098B2, “Methods of treating hormone-related conditions using thio-oxindole derivatives” (Wyeth LLC, priority 2002, dated 2012)

What was measured:
androgen receptor (AR) [1] = biological target: T1, androgen receptor (AR) (Mus musculus, UniProt P19091); test: AR agonistic activity, PRE-tk-luciferase reporter in L929 cells; type: cell-based; conditions: at the maximum concentration tested (i.e., 10 nM)
T1 construct: in the L929 cells which express the AR but not the PR; endogenous in cells; host or cells: L929 cells
T1 sequence (P19091 1-899): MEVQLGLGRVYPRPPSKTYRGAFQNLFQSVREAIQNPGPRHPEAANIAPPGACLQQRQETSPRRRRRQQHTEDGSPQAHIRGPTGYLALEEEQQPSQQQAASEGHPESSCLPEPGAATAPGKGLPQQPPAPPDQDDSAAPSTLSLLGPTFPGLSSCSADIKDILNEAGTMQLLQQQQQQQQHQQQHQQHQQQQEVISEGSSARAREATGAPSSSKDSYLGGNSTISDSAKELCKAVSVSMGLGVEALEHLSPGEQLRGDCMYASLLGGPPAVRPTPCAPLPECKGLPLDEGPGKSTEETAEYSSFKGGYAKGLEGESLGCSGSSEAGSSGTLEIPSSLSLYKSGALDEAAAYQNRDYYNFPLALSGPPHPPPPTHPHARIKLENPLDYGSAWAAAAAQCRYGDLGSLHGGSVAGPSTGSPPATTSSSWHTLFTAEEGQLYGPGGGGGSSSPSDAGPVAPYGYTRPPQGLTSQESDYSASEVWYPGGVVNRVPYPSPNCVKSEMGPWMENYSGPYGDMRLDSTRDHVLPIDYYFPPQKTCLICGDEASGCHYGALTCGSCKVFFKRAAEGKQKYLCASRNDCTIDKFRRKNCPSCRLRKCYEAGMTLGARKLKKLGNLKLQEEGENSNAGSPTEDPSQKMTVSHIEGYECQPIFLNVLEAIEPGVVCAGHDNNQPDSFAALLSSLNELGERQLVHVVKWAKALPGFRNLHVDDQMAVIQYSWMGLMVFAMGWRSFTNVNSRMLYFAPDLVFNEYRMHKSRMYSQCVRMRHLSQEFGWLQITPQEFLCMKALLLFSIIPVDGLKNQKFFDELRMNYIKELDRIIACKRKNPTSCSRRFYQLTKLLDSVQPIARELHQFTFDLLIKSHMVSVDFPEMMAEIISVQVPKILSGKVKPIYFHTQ
Experimental: (§1) The androgen receptor (AR) agonistic and antagonistic activity of the compositions of the invention in the L929 cells which express the AR but not the PR was evaluated as described in Zhang et al., Steroids, 65(10-11): 637-643 (October-November 2000).
(§2) Cells were plated in 96-well plates at 25,000 cells/well in DMEM (BioWhittaker) with 10% (v/v) fetal bovine serum (FBS). The next day, cells were infected with the adenovirus PRE-tk-luciferase reporter construct (2×10^9 pfu/ml particles) and kept in DMEM containing 10% charcoal stripped FBS for an additional 24 hours. […] To test the anti-androgenic activity, cells were co-treated with 3 nM DHT. Luciferase activity was measured 24 hours following the treatment.

androgen receptor (AR) [2] = biological target: T1, androgen receptor (AR); test: Anti-androgenic activity, PRE-tk-luciferase reporter in L929 cells co-treated with 3 nM DHT; type: cell-based; conditions: nine point dose response
Experimental: as §1, §2

- agonistic activity (androgen receptor (AR) [1]): only marginal agonistic activity
- antagonistic activity (androgen receptor (AR) [2]): significant antagonistic activity
Structure (SMILES): Cn1c(C#N)ccc1-c1ccc2c(c1)C1(CCCCC1)C(=NC#N)N2 [5′-(5-Cyano-1-methyl-1H-pyrrol-2-yl)spiro[cyclohexane-1,3′-[3H]indol]-2′-ylidenecyanamide]
